# Reference: PMC8662641, “Site-Specific Labeling of Endogenous Proteins Using CoLDR Chemistry” (Journal of the American Chemical Society, 2021)
# How the values were obtained:
# BTK = BTK (Homo sapiens, UniProt Q06187); assay: In-gel fluorescence labeling profile in Mino cells; details: 2 h incubation, in-gel fluorescence
# Protocol: Lysates were then diluted to 2 mg/mL in PBS. […] The samples were incubated at 25 °C for 2 h. A 20 μL amount of 4× LDS sample buffer (NuPAGE, Thermo Fisher Scientific, NP0007) was added followed by a 10 min incubation at 70 °C.
# The 1× chloroform, 4× methanol, and 3× water were added to the samples and vortexed thoroughly. The samples were spun down for 10 min at 4 °C. The top layer was aspirated, and the pellet was resuspended in 4× methanol. The sample was vortexed and spun down again for 10 min at 4 °C, the solution was removed, and the pellet was dried for 2 min. The pellet was dissolved in 42 μL of PBS followed by 14 μL of 4× sample buffer. The samples were then loaded on a 4–20% Bis-Tris gel (SurePAGE, GeneScript) and imaged using a Typhoon FLA 9500 scanner.
# BTK kinase domain = BTK kinase domain (Homo sapiens, UniProt Q06187); assay: MS/MS site-of-labeling analysis of BTK tryptic peptides; assay type: binding; design: BTK kinase domain was expressed and purified as previously reported; made in house
# Chain of BTK kinase domain (Q06187 402-655 limits assumed): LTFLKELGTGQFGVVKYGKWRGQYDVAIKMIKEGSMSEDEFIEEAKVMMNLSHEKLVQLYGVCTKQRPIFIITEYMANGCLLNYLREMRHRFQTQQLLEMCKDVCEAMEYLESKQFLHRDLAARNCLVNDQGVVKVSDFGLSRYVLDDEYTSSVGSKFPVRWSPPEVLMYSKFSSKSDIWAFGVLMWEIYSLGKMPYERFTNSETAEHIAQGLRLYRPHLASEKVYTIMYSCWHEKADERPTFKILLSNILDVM
# Protocol: 100 μl of 5 μM Recombinant BTK kinase domain was incubated in 20 mM Tris with 50 μM of 1b or DMSO. The compounds were then removed by methanol-chloroform (400 μL MeOH+100 μL CHCl3+300 μL H2O) precipitation of the protein. The dry pellet was dissolved in 50 μl of 50 mM Tris pH 8 + 5% SDS and heated to 95 °C for 6 min. The concentration of the protein was estimated using BCA assay (using BSA as the standard). 2 μg each sample were diluted to 15 μl with Tris 50 mM pH 8 + 5% SDS, reduced with DTT (0.75 μl of 0.1 M in 5% SDS/Tris 50 mM pH 8, 45 min 65 °C), cooled to room temperature, then alkylated with 0.75 μl of 0.2 M iodoacetamide in water (30 min room temperature in the dark). The protein was then isolated and trypsinized on s-traps (Protifi) according to the manufacturer's instructions. Triplicates were prepared for each […]
# ULC/MS grade solvents were used for all chromatographic steps. Each sample was loaded using split-less nano-Ultra Performance Liquid Chromatography (10 kpsi nanoAcquity; Waters, Milford, MA, USA). The mobile phase was: A) H2O + 0.1% formic acid and B) acetonitrile + 0.1% formic acid. Desalting of the samples was performed online using a reversed-phase Symmetry C18 trapping column (180 µm internal diameter, 20 mm length, 5 µm particle size; Waters). The peptides were then separated using a T3 HSS nano-column (75 µm internal diameter, 250 mm length, 1.8 µm particle size; Waters) at 0.35 µL/min. Peptides were eluted from the column into the mass spectrometer using the following gradient: 4% to 30%B in 155 min, 35% to 90%B in 5 min, maintained at 90% for 5 min and then back to initial conditions.
# The nanoUPLC was coupled online through a nanoESI emitter (10 μm tip; New Objective; Woburn, MA, USA) to a quadrupole orbitrap mass spectrometer (Q Exactive HFX, Thermo Scientific) using a FlexIon nanospray apparatus (Proxeon).
# Data was acquired in data dependent acquisition (DDA) mode, using a Top10 method. MS1 […]
# maximum injection time was set to 60msec. MS2 resolution was set to 15,000, quadrupole isolation 1.7 m/z, AGC of 1e5, dynamic exclusion of 45 sec and maximum injection time of 60 […]
# Analysis was done using MaxQuant 1.6.3.4. The sequence of BTK was used for the analysis. The digestion enzyme was set to Trypsin with a maximum number of missed cleavages of 0.
# Carbamidomethyl and the modification by the molecule were included as variable modifications on cysteine. The “Re-quantify” option was enabled. Contaminants were included. Peptides were searched with a minimum peptide length of 7 and a maximum peptide mass of 4,500 Da. “Second peptides” were enabled and “Dependent peptides” were disabled. The option “Match between runs” was enabled with a Match time window of 0.7 min and an alignment window of 20 min. An FDR of 0.01 was used for Protein FDR, PSM FDR and XPSM FDR. The triplicate measured for each compound (or for DMSO-treated protein) was analyzed separately.
# Following MaxQuant analysis, only fully cleaved peptides were quantified and cysteine-containing peptides that were not modified by either iodoacetamide or compound were ignored.
# The intensity for each peptide was calculated as the average of the three triplicates. If the intensity was zero for one of the replicates the peptide was ignored. The intensities for the non-cysteine containing peptides were averaged for each data set and used to normalize the intensity of cysteine-containing peptides. Estimation of the extent of labeling of cysteine-containing peptides in the sequence was done by comparing the intensity of carbamidomethyl-modified peptides between the DMSO and molecule-treated samples. MS/MS spectra for the carbamidomethyl-modified and molecule modified peptides were extracted using Skyline. […]
# The obtained
# Chain of BTK (Q06187 whole entry, the tested form may be a part): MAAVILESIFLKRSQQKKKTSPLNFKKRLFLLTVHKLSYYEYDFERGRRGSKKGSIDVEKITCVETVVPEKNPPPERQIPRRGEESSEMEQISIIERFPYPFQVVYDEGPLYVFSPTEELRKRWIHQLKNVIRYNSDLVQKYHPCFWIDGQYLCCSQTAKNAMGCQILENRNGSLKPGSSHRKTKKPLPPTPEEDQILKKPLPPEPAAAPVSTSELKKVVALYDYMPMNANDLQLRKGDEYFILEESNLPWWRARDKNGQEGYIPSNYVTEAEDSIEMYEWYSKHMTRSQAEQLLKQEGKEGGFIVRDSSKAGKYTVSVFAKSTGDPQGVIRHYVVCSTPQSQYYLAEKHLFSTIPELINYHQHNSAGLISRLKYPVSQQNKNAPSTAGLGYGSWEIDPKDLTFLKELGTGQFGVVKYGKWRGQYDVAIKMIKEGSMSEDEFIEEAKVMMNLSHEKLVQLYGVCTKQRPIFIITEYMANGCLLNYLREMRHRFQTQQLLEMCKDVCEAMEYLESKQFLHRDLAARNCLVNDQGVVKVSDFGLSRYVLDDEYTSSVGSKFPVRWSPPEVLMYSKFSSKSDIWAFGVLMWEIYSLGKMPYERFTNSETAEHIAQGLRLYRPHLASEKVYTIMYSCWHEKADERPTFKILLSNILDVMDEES
compound,measurement,setting,value
C#CCCNC(=O)C(=C)CN1CCC[C@@H](n2nc(-c3ccc(Oc4ccccc4)cc3)c3c(N)ncnc32)C1 [1b],labeling of BTK in live Mino cells,BTK,robust labeling even at a concentration of 10 nM
same,site of modification on BTK,BTK kinase domain; LC/MS/MS of tryptic peptides,Cys481
same,1b/DMSO ratio after correction,BTK kinase domain; iodoacetamide labeled peptide 457-466 LVQLYGVCTK,0.891
same,1b/DMSO ratio after correction,BTK kinase domain; iodoacetamide labeled peptide 467-487 QRPIFIITEYMANGCLLNYLR,0.092
same,1b/DMSO ratio after correction,BTK kinase domain; iodoacetamide labeled peptide 493-503 FQTQQLLEMCK,0.469
same,1b/DMSO ratio after correction,BTK kinase domain; iodoacetamide labeled peptide 504-515 DVCEAMEYLESK,0.413
same,1b/DMSO ratio after correction,BTK kinase domain; iodoacetamide labeled peptide 526-536 NCLVNDQGVVK,0.724
same,1b/DMSO ratio after correction,BTK kinase domain; iodoacetamide labeled peptide 626-637 VYTIMYSCWHEK,0.735
